{"source": "patent US12551429B2", "about": "“Oral care complexes and compositions” (Colgate-Palmolive Company, priority 2021, dated 2026)", "key": {"[1]": {"experiment": "Knoop hardness repair (% HR) of acid-etched human enamel after treatment and remineralization", "quoted_text": "KHN is determined using the Knoop microhardness tester. A baseline measurement is taken on a sound enamel sample without treatment (KHN0), on an acid-etched enamel sample (KHNe), and on an acid-etched enamel sample after treatment (KHNt). Each KHN measurement is the average of 5 indentations made on the same specimen at a force of 0.05 kg for 15 seconds. A value for Percentage of Hardness Repair (% HR) is calculated according to the following formula: % HR=(KHNt−KHNe)/(KHN0−KHNe)×100\nEtched enamel samples are prepared by treatment with 1% aqueous citric acid (pH 3.6) for 10 minutes, followed by rinsing with deionized water. […]"}, "[2]": {"experiment": "Surface roughness change (% R) of etched human enamel, 3D laser scanning confocal microscope", "conditions": "Example 2, % R=(Rt−Re)/(Re)×100, four days of treatment, negative = smoother", "description": "Human molar teeth are obtained, and the root portion of the molar is removed. The crown of the molar is cut longitudinally into slices 2 mm thick using a water-cooled low-speed diamond saw. The human enamel samples are then mounted in acrylic resin. The embedded samples are grinded and polished with a sequential series of wet 400 to 4000 grit silicon carbide papers and nylon adhesive backed discs with 0.25 micron diamond or colloidal silica coating. The polished slices are rinsed thoroughly with distilled water three times, sonicated in a water bath for five minutes, then rinsed again and allowed to air dry.\n(§1) Etched enamel samples are prepared by treatment with 1% aqueous citric acid (pH 3.6) for 10 minutes, followed by rinsing with deionized water.\nEtched human enamel samples are treated with 50 microliters of polyelectrolyte solutions A-F, or with control solutions, for ten minutes at room temperature. […]\nIn addition, surface roughness and morphology are evaluated using a 3D laser scanning confocal microscope. […] Roughness is therefore measured in units of micrometers. Values for roughness of the acid etched enamel sample (Re) and for the acid-etched enamel sample after treatment (Rt) are determined. Percentage of roughness (% R) is calculated as follows: % R=(Rt−Re)/(Re)×100"}, "[3]": {"experiment": "Knoop hardness repair (% HR) of acid-etched bovine enamel after treatment and remineralization", "conditions": "for % HR (Percentage Hardness Repair): bovine enamel, 40 microliters", "method": "Bovine enamel blocks are obtained from sound bovine incisors without defects. The labial surface of the bovine teeth is cut to provide enamel specimens of about 3×3×2 mm in size. The enamel layer is about 1 mm thick and the dentin left in the specimen is about 1 mm thick.\nas §1\nEtched bovine enamel samples are treated with 50 microliters of polyelectrolyte solutions A-F, or with sodium fluoride solution or water, for ten minutes at room temperature. The samples are then rinsed with deionized water and then they are immersed in 50 mL of Remineralization Solution (0.2205 g/L CaCl2·2H2O, 0.1225 g/L KH2PO4, 9.6915 g/L KCl and 4.766 g/L HEPEs buffer, pH adjusted to 7 with NaOH) overnight at 37° C. The enamel samples are then rinsed with deionized water for 50 seconds and then air dried.\nKnoop Hardness (KHN) is a measure of hardness of a material calculated by measuring the indentation produced by a diamond tip that is pressed onto the surface of a sample. Using a calibrated microscope, the area of the impression can be determined, and from the area of the indentation (D) in […], and the applied load (F) in kilograms force, the Knoop Hardness is calculated as: KHN=14.229(F/D^2). Knoop hardness has units of kgf/mm^2.\nKHN is determined using the Knoop microhardness tester. […] A value for Percentage of Hardness Repair (% HR) is calculated according to the following formula: % HR=(KHNt−KHNe)/(KHN0−KHNe)×100\nBovine and human enamel blocks are prepared and treated with polyelectrolyte test solutions as described in Examples 1 and 2, respectively, except that 40 microliters of the polyelectrolyte solution are applied to the etched enamel surface, instead of 50 microliters. Koop Hardness (KHN) and Percentage Hardness Repair (% HR) are determined as described in Examples 1 and 2. […]"}, "[4]": {"experiment": "Step height repair of etched bovine enamel blocks (sound/damaged/repaired method, Keyence microscope)", "method": "(§2) The left half of the block (“sound”) is covered using an acid-resistant nail polish, which is then allowed to air dry. The right half of the block (“damaged” and “repaired”) is then treated with 1% citric acid (pH 3.6) for ten minutes to etch the surface. After the treatment, the surface of the block is rinsed with deionized water. The top right corner of the block (“damaged”) is then covered with the same acid-resistant nail polish and air dried. The test formulation is then applied to the bottom right corner of the block (“repaired”), for example, for a ten-minute treatment, followed by rinsing with deionized water. Following the treatment, the enamel blocks are immersed in a Remineralization Solution (0.2205 g/L CaCl2·2H2O, 0.1225 g/L KH2PO4, 9.6915 g/L KCl and 4.766 g/L HEPEs buffer, pH adjusted to 7 with NaOH) overnight at 37° C., and the process repeated for 2-4 days (the blocks immersed daily in fresh remineralization solution). Following this, the blocks are removed, rinsed with deionized water and air dried. The nail polish covers are then removed using acetone solvent, and the surface of the enamel blocks is visualized, for example, by light microscopy, confocal laser scanning microscopy, scanning probe microscopy, or scanning electron microscopy. […]\n(§3) Enamel repair is also evaluated using the method described in Example 4. […]"}, "[5]": {"experiment": "Gloss recovery (% GR) of acid-etched enamel, Novo-Curve glossmeter", "parameters": "species or system bovine", "conditions": "Example 5", "method": "Enamel repair is also evaluated using the method described in Example 4. A Keyence microscope is used to capture the surface morphology and to measure the step height of the treated samples. A Phenom ProX Desktop scanning electron microscope is used to observe the repaired enamel crystals. Bovine enable blocks are treated with either water, the sodium fluoride solution, or the 10 mg/mL ePL+0.06 mg/mL malic acid solution (Solution E above).\nThe effect of treatments on enamel appearance is also investigated by measuring the surface gloss and observing the surface under a microscope. The gloss values are measured using a Novo-Curve glossmeter. A glossmeter provides a quantifiable way of measuring gloss intensity, and the measurement relates to the amount of reflected light from a black glass standard with a defined refractive index. The ratio of reflected light for a test specimen, compared to the ratio for the gloss standard, is recorded as gloss units (GU). A gloss measurement of >70 GU is considered high gloss, while medium gloss is 10-70 GU, and low gloss is <10 GU.\nA baseline measurement is taken on a sound enamel sample without treatment (G0), on an acid-etched enamel sample (Ge), and on an acid-etched enamel sample after treatment (Gt). The percentage of gloss recovery (% GR) is calculated according to the following formula: % GR=(Gt−Ge)/(G0−Ge)×100."}, "[6]": {"experiment": "Light microscopy of enamel surface morphology (sound/damaged/repaired method)", "conditions": "Example 5; bovine enamel blocks", "method": "as §2, §3"}, "[7]": {"experiment": "Scanning electron microscopy of enamel surface", "conditions": "Example 5; bovine enamel blocks", "method": "as §2, §3"}}}
{"smiles": "O=C(O)CC(O)C(=O)O", "note": "(stereo not drawn) [Malic acid, malic acid]", "values": [{"measurement": "% HR (Percentage of Hardness Repair)", "setting": "[1]; Example 2, 50 microliters for ten minutes, overnight remineralization, repeated daily for four days", "result": 19.8, "unit": "%"}, {"measurement": "% R (Percentage of roughness)", "setting": "[2]", "result": "−1.6", "unit": "%"}]}
{"smiles": "[F-].[Na+]", "note": "[NaF, sodium fluoride]", "values": [{"measurement": "% HR (Percentage of Hardness Repair)", "setting": "[3]; Example 1, bovine enamel etched with 1% citric acid, 50 microliters for ten minutes, Remineralization Solution overnight at 37° C.", "result": 27.9, "unit": "%"}, {"measurement": "% HR (Percentage Hardness Repair)", "setting": "[3]; Example 3, solutions pH 7.0", "result": 35.9, "unit": "%"}, {"measurement": "% HR (Percentage Hardness Repair)", "setting": "[3]; Example 5, solutions about pH 6.0, 1 day of treatment", "result": 41.0, "unit": "%"}, {"measurement": "% HR (Percentage Hardness Repair)", "setting": "[1]; Example 3, 40 microliters, solutions pH 7.0, 4 days of treatments", "result": 49.3, "unit": "%"}, {"measurement": "restoration of enamel height in 3-D Keyence photomicrographs (FIG. 3)", "setting": "[4]; Example 5", "result": "do not restore the enamel to the original height"}, {"measurement": "% Repair (Step height)", "setting": "[4]; Example 5, calculated from change in step height", "result": 65.3, "unit": "%"}, {"measurement": "% GR (percentage of gloss recovery)", "setting": "[5]; 2 days of remineralization", "result": 12.7, "unit": "%"}, {"measurement": "surface gloss recovery, in words", "setting": "[5]; after 2 days of remineralization", "result": "slightly better than water treatment"}, {"measurement": "surface morphology of the repaired side under the microscope (FIG. 2)", "setting": "[6]", "result": "a clear interface between “damaged” and “repaired” sides is observed"}, {"measurement": "repair of gaps or cracks in the enamel surface by scanning electron microscopy", "setting": "[7]", "result": "some healing"}]}
